Test: Unspecified tests of activity
Conditions: tests not specified

SMILES: O=C(O)CC[C@H](NC(=O)Oc1ccc(N(CCI)CCI)cc1)C(=O)O [Example 33]
- activity in tests: good activity

— US5714148A, “Chemical compounds” (Zeneca Limited, priority 1992, dated 1998)
